In brackets after ≈: the same amount, converted by molar mass.

The subject of data set [1] is G. vaginalis (ATCC 14018). The experiment in a line: Zone of inhibition on HBT plate lawn. It counts as cell-based, Gardnella vaginalis. The following applies: 37° C., 6% CO2, 48 hours. As for the experimental part: To test the bioactivity of metronidazole film, Gardnella vaginalis (G. vaginilis) (ATCC 14018) was plated on HBT plates to form a lawn. A metronidazole film was placed in the middle of the plated bacteria and plates were incubated at 37° C. with 6% CO2 for 48 hours. Post incubation, the plates were visually inspected for the formation of a zone of inhibition. Placebo films and metronidazole drug substance were prepared and tested in the same manner as the controls. […] This confirms that G. vaginilis growth is inhibited by the presence of both the metronidazole drug substance alone and within the film. On the other hand, G. vaginilis was not affected by the placebo film.
To test the bioactivity of bacterial/metronidazole combination film, G. vaginalis (ATCC 14018) was plated on Human Blood Tween Bilayer (HBT) plates to form a lawn. Bacteria/metronidazole film was placed in the middle of the HBT plated bacteria and plates were incubated at 37° C. with 6% CO2 for 48 hours. Post incubation, the plates were visually inspected for the formation of a zone of inhibition and L. jensenii growth. Placebo films, metronidazole drug substance, and bacterial loaded film were prepared and tested in the same manner as the controls. […] Therefore, the desired in vivo antimicrobial and probiotic effects of the combination film were confirmed in vitro. […]

Data set [2] relates to wild type and resistant mutant HIV. The settings on record: cited from earlier work.
The test system of data set [3] is TZM-bl cells. It counts as cell-based.
Procedure: A DPV film was dissolved in 2 mL of saline and ten-fold serial dilutions were made. The DPV drug substance stock solution (1000 nM) was mixed in DMSO and serially diluted in DMEM with 10% BSA supplemented with antibiotics, which is the medium used in the TZM-bl assay. All dilution samples were added in triplicates to the TZM-bl cells that were plated. […] For cellular toxicity evaluation, similar set up of the experiment was conducted. Except that for toxicity study, the cells were not exposed to the virus. In this study the cells were exposed to CellTiter-Glo, and luminescence signal was measured. Cellular viability was determined based on the deviation from the cell-only control (Nixon, B., et al., Griffithsin protects mice from genital herpes by preventing cell-to-cell spread. J. Virol., 2013, 87(11):6257-6269).
For data set [4] the following is noted: pH 9; cited from earlier work.
The subject of data set [5] is rabbit model. The following applies: in vivo rabbit model; cited from earlier work.
Data set [6] deals with human cervical explants. The following applies: cited from earlier work.

Regarding `Cc1ncc([N+](=O)[O-])n1CCO` [Metronidazole], the zone of inhibition in data set [1] was ~1.5 cm.
Take `Cc1cc(C)c(Nc2ccnc(Nc3ccc(C#N)cc3)n2)c(C)c1` [DPV, Dapivirine]: in data set [2], the EC50 is 0.3 ng/mL (≈ 0.911 nM) and the EC90 is listed as 0.9 ng/mL (≈ 2.73 nM). In addition, the “cellular toxicity” value in data set [3] is recorded as “no cellular toxicity”. Also, the logP in data set [4] is given as 5.27.
Griffithsin [GRFT]: the “safety” value in data set [5] and in data set [6] was “safe” each time.

The values are drawn from patent US11672757B2, “Hot melt extrusion for pharmaceutical vaginal film products” (UNIVERSITY OF PITTSBURGH-OF THE COMMONWEALTH SYSTEM OF …, priority 2017, dated 2023).
